Measured values published in publication PMC10865344, “Self-Assembly and Antimicrobial Activity of Lipopeptides Containing Lysine-Rich Tripeptides” (Biomacromolecules, 2024).
Values after ≈ are worked out from the molar mass of the structure shown. Where a SMILES comes first, the peptide text is derived from it. [ ]: non-standard residue; d: D form. The star is where a group is joined. Palmitoyl = CCCCCCCCCCCCCCCC(=O)*

What was measured:
E. coli K-12 = assay type: cell-based, Escherichia coli; conditions: K-12, 24 h
Description: (§1) Antibacterial susceptibility testing was performed using a broth microdilution assay, against both Gram-negative and Gram-positive bacteria, as previously described by Kourmentza et al.[44] The target strains used were E. coli K-12, S. enterica NCTC 5188, and S. aureus NCDO 949. The test compounds were dissolved in water, filter-sterilized, and further diluted in Mueller-Hinton broth (MHB) which was used as the growth medium for the tests. 2-fold dilutions were performed, and 100 μL of each dilution was transferred to each well of 96-well plates. The final test concentration range of the compounds was 1.95–1000 μg/mL. Additionally, the 96-well plates contained wells with 200 μL of growth medium that served as sterility controls and wells filled with 100 μL of growth medium and 100 μL of inoculum that served as growth controls. The remaining wells were inoculated with 100 μL of a bacterial culture. The bacterial suspensions were prepared from overnight cultures in MHB. The bacterial density was adjusted to 0.5 McFarland (standard), and the suspensions were subsequently diluted 100 times using the growth medium. The 96-well plates were incubated at 37 °C for 24 h and the OD at 620 nm of the wells was assessed for growth. The MIC was defined as the lowest concentration of the antimicrobial agent tested that prevented any discernible growth after 24 h.
(§2) Since all the molecules are biocompatible at low concentrations, their antibacterial efficacy was examined in preliminary tests using a broth microdilution assay against both Gram-negative and Gram-positive bacteria. Here, E. coli K-12, S. enterica NCTC 5188 were cultured as Gram-negative bacteria and S. aureus NCDO 949 was used as a model Gram-positive bacterium. The lipopeptides were dissolved in water, filter-sterilized, and further diluted in Mueller-Hinton broth, which was used as the growth medium for the experiment to determine MIC values. […] E. coli was most susceptible to compounds P1 and P1D with MICs falling within the range of 15.63–31.25 μg/mL (Table 1). […] Overall, the P1 analogues have lower MIC values than those for the P2 analogues, especially for S. enterica.

S. enterica NCTC 5188 = experiment: Antibacterial susceptibility, broth microdilution assay (MIC); assay type: cell-based, Salmonella enterica; conditions: S. enterica NCTC 5188, broth microdilution in Mueller-Hinton broth, 37 °C, 24 h, OD 620 nm, test range 1.95–1000 μg/mL
Description: as §1, with “24 h. […]” for “24 h.”

S. aureus NCDO 949 = assay type: cell-based, Staphylococcus aureus; conditions: NCDO 949, 24 h
Description: as §1, §2

[1] = test system: L929 murine fibroblast cell lines; conditions: 48 h, 0.05 wt %
Description: L929 murine fibroblast cell lines (ECACC General Cell Collection) were grown in Dulbecco’s modified Eagle’s medium (DMEM) supplemented with 10% fetal bovine serum (FBS), 20 mM HEPES, and 1% GlutaMAX. The cells were maintained at pH 7.4, 37 °C, and 5% CO2 in 25 cm^2 cell culture flasks.
For the cytotoxicity assay, approximately 6000 cells per well were seeded in 96-well plates. The medium was exchanged after 24 h by adding solutions of different concentrations of the lipopeptides ranging from 0.05 to 0.0001 wt %. After 48 h of treatment, cell viability was assessed using an MTT [3-(4, 5-dimethylthiazolyl-2)-2, 5-diphenyltetrazolium bromide] assay. Here, the culture medium was removed, followed by the addition of a solution of MTT in DMEM medium at a concentration of 0.5 mg/mL. The plate was incubated for 4 h at 37 °C. Next, to dissolve the formazan crystals, dimethyl sulfoxide was added. Thereafter, using an automatic plate reader, the absorbance was measured at 560 nm. Cell survival was expressed as a percentage of viable cells in the presence of peptides compared with control cells grown in their absence. The assay was repeated three times, and the results were averaged. Statistical significance was tested using multiple Student’s t-tests.
Here, the cytotoxicity of all the lipopeptides was investigated by MTT assays on L929 murine fibroblast cell lines. […] For all the lipopeptides, the cytotoxicity results were obtained after 48 h of cell culture.

[2] = Critical aggregation concentration (CAC) by ANS fluorescence probe assay; assay type: physicochemical; conditions: 2 × 10^–3 wt % ANS solution, λex = 356 nm, emission 486 nm, 25 °C, aqueous solution
Description: Fluorescence experiments were carried out using a Varian Cary Eclipse spectrofluorometer in 4 mm inner-width quartz cuvettes. Excitation and emission bandwidths of 2.5 nm were used as the experimental settings. The temperature was set at 25 °C for all of the experiments. The CAC value for all of the lipopeptides was assessed by fluorescence experiments with 8-anilo-1-naphthalenesulfonic acid (ANS). ANS is a suitable fluorophore to determine the CAC value, due to changes in local hydrophobicity.[43] For this assay, various concentrations of samples were prepared in 2 × 10^–3 wt % ANS solution. Fluorescence spectra were recorded from 400 to 670 nm with λex = 356 nm.
To determine the CAC value of individual lipopeptides, the results were plotted as I/I0 versus log(c/wt %), where I stands for the maximum fluorescence intensity of ANS containing the various concentrations of samples and I0 stands for the intensity for the control, i.e., ANS solution without lipopeptide.
To determine CAC values of these lipopeptides, fluorescence probe assays using ANS were performed.[43] Emission spectra of the four lipopeptides were collected at different concentrations after excitation at 356 nm. At higher concentrations, an emission peak at 486 nm is visible. […] The lower CAC values for P2 and P2D are due to the higher hydrophobicity of tryptophan than tyrosine.

[3] = SAXS of micelles, core-shell sphere form factor and hard sphere structure factor fit; assay type: physicochemical
Description: SAXS experiments were performed on beamline B21 at Diamond (Didcot, UK). The sample solutions were loaded into the 96-well plate of an EMBL BioSAXS robot and then injected via an automated sample exchanger into a quartz capillary (1.8 mm internal diameter) with the X-ray beam. The quartz capillary was enclosed in a vacuum chamber to avoid parasitic scattering. After the sample was injected into the capillary and reached the X-ray beam, the flow was stopped during SAXS data acquisition. Beamline B21 operates with a fixed camera length (3.9 m) and fixed energy (12.4 keV). The images were captured by using a PILATUS 2 M detector. Data processing was performed by using the dedicated beamline software ScÅtter.
More quantitative information about these self-assembled nanostructures was obtained from SAXS, also performed for 1 wt % aqueous solutions of the four lipopeptides. Consistent with cryo-TEM, the form factors for P1, P1D, P2, and P2D can be fitted based on the core–shell sphere structure corresponding to a hydrophobic core and peptide corona. The fit parameters listed in SI Table S1 show outer radii in the range (2.47–2.90 ± 0.4) nm, consistent with cryo-TEM. The inner core radius is 1.45–1.56 nm, which is consistent with the length of an extended C16 lipid chain plus the first hydrophobic amino acid (Y or W). […] The shell thickness may be compared to the length of a tripeptide in an extended structure (such as PPII), 3 × 0.31 nm = 0.93 nm (residue translation value taken from ref ([55])) and is in good agreement with this value for P1, P1D, and P2D. […] The form factor parameters are the same within uncertainties for the other three lipopeptides. The association number can be estimated for P1 (similar values are expected for P1D and P2D since the micelle radius and molecular volume are similar) using the volume of a micelle Vmic = 4/3π(2.52 nm)^3 = 67.0 nm^3, while the molecular volume Vmol = 0.62 nm^3 was obtained from the hydrophobicity surface/molecular volume calculation in UCSF Chimera.[56] This leads to an estimated association number p = Vmic/Vmol = (108 ± 20). […]

[4] = 1 wt% sample at native pH = 4, core-shell sphere form factor

SMILES | MIC (E. coli K-12) | lower range MIC value for E. coli as molar concentration (E. coli K-12) | MIC (S. enterica NCTC 5188) | MIC (S. aureus NCDO 949) | cell viability [1] | CAC (concentration at the breakpoint of I/I0 at 486 nm vs concentration) [2] | Ri, micelle inner core radius [3, 4] | Ro, micelle outer radius [3, 4] | RHS, hard sphere radius ([3]; 1 wt% sample at native pH = 4, hard sphere structure factor)
CCCCCCCCCCCCCCCC(=O)N[C@@H](Cc1c[nH]c2ccccc12)C(=O)N[C@@H](CCCCN)C(=O)N[C@@H](CCCCN)C(N)=O [P2] (Palmitoyl-Trp-Lys-Lys-NH2) | 15.63 to 62.5 µg/mL | 22 to 23 µM | 62.5 to 250 µg/mL | 31.25 to 62.5 µg/mL | 20.2 ± 2.8% | – | – | – | –
CCCCCCCCCCCCCCCC(=O)N[C@@H](Cc1ccc(O)cc1)C(=O)N[C@H](CCCCN)C(=O)N[C@H](CCCCN)C(N)=O [P1D] (Palmitoyl-Tyr-[dK]-[dK]-NH2) | 15.63 to 31.25 µg/mL | 22 to 23 µM | – | 31.25 µg/mL (≈ 46.3 µM) | 44.1 ± 7.6% | – | – | – | –
CCCCCCCCCCCCCCCC(=O)N[C@@H](Cc1c[nH]c2ccccc12)C(=O)N[C@H](CCCCN)C(=O)N[C@H](CCCCN)C(N)=O [P2D] (Palmitoyl-Trp-[dK]-[dK]-NH2) | 31.25 to 62.5 µg/mL | – | 62.5 µg/mL (≈ 89.5 µM) | 31.25 to 62.5 µg/mL | 13.0 ± 1.1% | 0.00257 ± 0.05 wt % | 15.1 Å | 26.3 Å | 79.3 Å
CCCCCCCCCCCCCCCC(=O)N[C@@H](Cc1ccc(O)cc1)C(=O)N[C@@H](CCCCN)C(=O)N[C@@H](CCCCN)C(N)=O [P1] (Palmitoyl-Tyr-Lys-Lys-NH2) | 15.63 to 31.25 µg/mL | 22 to 23 µM | – | 31.25 to 62.5 µg/mL | 53.1 ± 5.1% | – | – | – | –
